Legend:
[1] = molecular target: T1, FoxO1 (Mus musculus, UniProt Q9R1E0); design: endogenous in cells; host or cells: Somatostatin-Cre; R26-YFP; RIP-DTR mice (pancreatic islets, δ-cells), in vivo; details: oral administration, diabetic db/db mice; cited from earlier work
[2] = molecular target: T1, FoxO1; experiment: Transient FoxO1 inhibition in β-cell-ablated (and non-ablated control) adult Somatostatin-Cre; R26-YFP; RIP-DTR mice: δ-cell conversion into insulin+ cells
[3] = system: α-cells; experiment: α-cell lineage tracing after β-cell ablation in Glucagon-rtTA; TetO-Cre; R26-YFP; RIP-DTR pups; type: in vivo, mice; details: DT at 2 weeks of age
[4] = system: β-cells; type: in vivo, mice; details: 2 weeks following DT administration; ablation at 2 weeks of age
[5] = administered immediately after DT ablation, analysed 1mpa, adult mice

T1 sequence (Q9R1E0 whole entry): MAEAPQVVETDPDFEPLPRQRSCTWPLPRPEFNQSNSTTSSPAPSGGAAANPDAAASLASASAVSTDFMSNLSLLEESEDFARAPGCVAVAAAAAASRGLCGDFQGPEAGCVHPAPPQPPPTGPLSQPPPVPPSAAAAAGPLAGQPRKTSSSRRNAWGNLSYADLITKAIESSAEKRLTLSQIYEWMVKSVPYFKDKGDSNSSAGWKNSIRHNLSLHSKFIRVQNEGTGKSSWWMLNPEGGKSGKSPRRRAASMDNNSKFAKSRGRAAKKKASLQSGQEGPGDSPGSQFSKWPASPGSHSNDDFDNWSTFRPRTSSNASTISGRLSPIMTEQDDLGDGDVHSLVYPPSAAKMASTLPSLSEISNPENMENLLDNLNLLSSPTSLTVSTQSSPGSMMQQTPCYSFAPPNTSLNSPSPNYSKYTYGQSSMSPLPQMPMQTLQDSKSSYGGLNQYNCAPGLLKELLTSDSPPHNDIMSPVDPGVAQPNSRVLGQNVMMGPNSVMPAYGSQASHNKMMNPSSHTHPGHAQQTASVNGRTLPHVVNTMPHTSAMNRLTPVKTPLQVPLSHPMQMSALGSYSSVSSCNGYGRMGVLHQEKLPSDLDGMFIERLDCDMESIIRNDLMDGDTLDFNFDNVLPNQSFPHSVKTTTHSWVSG

Compound | fasting plasma glucose level [1] | insulin+ cells more abundant ([2]; AS1842856 given for 1 week immediately after DT ablation, analysed 1 month post ablation (1mpa), adult mice, 30 mg/kg i.p. daily) | fraction of YFP+ cells that expressed insulin only [2, 5] | insulin+ cells that were YFP+, i.e. dedifferentiated δ-cells [2, 5] | δ-cell de-differentiation upon transient FoxO1 inhibition ([2]; adult mice, AS1842856 for 1 week) | effect on insulin expression induction ([2]; non-ablated control mice) | YFP+/insulin+ (% cells; 1.5 mpa) [3] | β-cells lost [4]
CCn1cc(C(=O)O)c(=O)c2c(N)c(F)c(NC3CCCCC3)cc21 [AS1842856, 5-amino-7-(cyclohexylamino)-1-ethyl-6-fluoro-4-oxo-1,4-dihydroquinoline-3-carboxylic acid] | drastic decrease | 11 fold | one-fourth | 93% | de-differentiate | minimal effect |  | 
Diphtheria toxin [DT] |  |  |  |  |  |  | 0.23% | 99%
